≈ marks a conversion by molar mass, not a printed value. Read-outs that look alike come from different tables or passages of the source. Positions of bridges follow the written chain, without caps; N, C: chain ends. Non-standard residues stand in square brackets, D forms with d. Residues, ends and D or L forms follow the SMILES beside them. Lys(N3) = [N-]=[N+]=NCCCC[C@H](N)C(=O)O; R8 = C=CCCCCCC[C@@](C)(N)C(=O)O; Cba = N[C@@H](CC1CCC1)C(=O)O; S5 = C=CCCC[C@](C)(N)C(=O)O; βAla = NCCC(=O)O
Columns and labels:
[1] = Lactate dehydrogenase (LDH) release assay; type: cell-based
Method in brief: (§1)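 HCT116 cells stably carrying a p53-responsive β-lactamase reporter were seeded at 8000 cells per well with a final DMSO level of 0.5%. Membrane integrity was assessed by lactate dehydrogenase release using a homogeneous fluorometric kit. Values are geometric means of at least three biological replicates.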

HCT116 cells = experiment: Lactate dehydrogenase (LDH) release assay; type: cell-based
Method in brief: as §1

[2] = Nanoclick permeability assay
Method in brief: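 Azido-peptide permeability was read as loss of NanoBRET signal (donor 450 nm, acceptor 610 nm) after adding NanoBret618-azide at 10 μM final.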

[3] = Solubility assay (kinetic solubility, PBS pH 7); type: physicochemical; conditions: read-out: Solubility
Method in brief: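 Values derive from peak-area ratios of sample versus a 100 µM standard, scaled by that standard's concentration.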

[4] = Experimental LogD (partition coefficient); conditions: not stated, Partition Coeff LogD
[5] = 0% FBS 4Hr, read-out: LDH: Cytotoxicity assay EC50
[6] = pH 7, aqueous buffer, kinetic from dmso stock, pH 7, PBS

In the case of CC(=O)N[C@@H](CCCCN=[N+]=[N-])C(=O)NCCC(=O)N[C@@H](CC(C)C)C(=O)N[C@H](C(=O)N[C@@H](Cc1ccccc1)C(=O)N[C@]1(C)CCCCCCC=CCCC[C@@](C)(C(=O)N[C@@H](C)C(=O)N[C@@H](C)C(=O)N[C@@H](C)C(N)=O)NC(=O)[C@H](CC2CCC2)NC(=O)[C@H](CCC(N)=O)NC(=O)[C@H](C)NC(=O)[C@H](Cc2c[nH]c3ccccc23)NC(=O)[C@H](Cc2ccc(O)cc2)NC(=O)[C@H](CCC(=O)O)NC1=O)[C@@H](C)O [MP-8956, AZIDE-ATSP-7041 (S12A)] (Ac-[Lys(N3)][βAla]LTF[R8]EYWAQ[Cba][S5]AAA-NH2; staple 6-13), the EC50 [1, 5] is reported as greater than 50 µM, the EC50 ([1]; 10% FBS 4Hr, read-out: LDH: Cytotoxicity assay EC50) is reported as greater than 50 µM and the “LDH: Cytotoxicity assay % Effect” value (HCT116 cells; 0% FBS 4Hr) is reported as 18.05%. For the same compound, the “LDH: Cytotoxicity assay % Effect” value (HCT116 cells; 10% FBS 4Hr) was 3.25%, the EPSA (physchem) was 217 A^2 and the cell entry EC50 [2] was 0.411 µM. It also gave a solubility kinetic [3, 6] of 108 µM (≈ 211 µg/mL) and a solubility kinetic [3] of 108 µM (≈ 211 µg/mL).
Work on CC(=O)N[C@@H](CCCCN=[N+]=[N-])C(=O)NCCC(=O)N[C@@H](CC(C)C)C(=O)N[C@H](C(=O)N[C@@H](Cc1ccccc1)C(=O)N[C@]1(C)CCCCCCC=CCCC[C@@](C)(C(=O)NC(C)(C)C(=O)N[C@@H](C)C(=O)N[C@@H](C)C(N)=O)NC(=O)[C@H](CC2CCC2)NC(=O)[C@H](CCC(N)=O)NC(=O)[C@H](C)NC(=O)[C@H](Cc2c[nH]c3ccccc23)NC(=O)[C@H](Cc2ccc(O)cc2)NC(=O)[C@H](CCC(=O)O)NC1=O)[C@@H](C)O [MP-172] yielded an EPSA (physchem) of 225 A^2, a cell entry EC50 ([2]; Nanoclick permeability assay EC50) of 0.123 µM and a solubility kinetic [3, 6] of 140 µM (≈ 276 µg/mL). It also gave a logD [4] of 3.17.
For CC(=O)N[C@@H](CC(C)C)C(=O)N[C@H](C(=O)N[C@@H](Cc1ccccc1)C(=O)N[C@]1(C)CCCCCCC=CCCC[C@@](C)(C(=O)N[C@@H](CO)C(=O)N[C@@H](C)C(=O)N[C@@H](C)C(N)=O)NC(=O)[C@H](CC2CCC2)NC(=O)[C@H](CC(C)C)NC(=O)[C@H](CCC(N)=O)NC(=O)[C@H](Cc2c[nH]c3ccccc23)NC(=O)[C@H](Cc2ccc(O)cc2)NC(=O)[C@H](CCCNC(=N)N)NC1=O)[C@@H](C)O [MP-193] (Ac-LTF[R8]RYWQL[Cba][S5]SAA-NH2; staple 4-11), the EC50 ([1]; LDH: Cytotoxicity assay EC50) was greater than 50 µM, the “LDH: Cytotoxicity assay % Effect” value (HCT116 cells) was 58.33% and the EPSA (physchem) was 207 A^2. It also gave a solubility kinetic [3, 6] of 2 µM (≈ 3.63 µg/mL) and a logD [4] of 3.26.
With CC(=O)N[C@@H](CCCCN=[N+]=[N-])C(=O)NCCC(=O)NC(C)(C)C(=O)N[C@H](C(=O)N[C@@H](Cc1ccccc1)C(=O)N[C@]1(C)CCCCCCC=CCCC[C@@](C)(C(=O)N[C@@H](CO)C(=O)N[C@@H](C)C(=O)N[C@@H](C)C(N)=O)NC(=O)[C@H](CC2CCC2)NC(=O)[C@H](CCC(N)=O)NC(=O)[C@H](C)NC(=O)[C@H](Cc2c[nH]c3ccccc23)NC(=O)[C@H](Cc2ccc(O)cc2)NC(=O)[C@H](CCC(=O)O)NC1=O)[C@@H](C)O [MP-168] the EC50 [1, 5] was greater than 50 µM, the “LDH: Cytotoxicity assay % Effect” value (HCT116 cells; 0% FBS 4Hr) was 4.017% and the “LDH: Cytotoxicity assay % Effect” value (HCT116 cells; 0% FBS 16Hr) was 11.59%. It also gave an EPSA (physchem) of 228 A^2, a solubility kinetic [3, 6] of 79.5 µM (≈ 154 µg/mL) and a logD [4] of 2.81.
With CC(=O)N[C@@H](CC(C)C)C(=O)N[C@H](C(=O)N[C@@H](Cc1ccccc1)C(=O)N[C@]1(C)CCCCCCC=CCCC[C@@](C)(C(=O)N[C@@H](Cc2c[nH]cn2)C(=O)N[C@@H](C)C(=O)N[C@@H](C)C(N)=O)NC(=O)[C@H](CC2CCC2)NC(=O)[C@H](CC(C)C)NC(=O)[C@H](CCC(N)=O)NC(=O)[C@H](Cc2c[nH]c3ccccc23)NC(=O)[C@H](Cc2ccc(O)cc2)NC(=O)[C@H](CCC(=O)O)NC1=O)[C@@H](C)O [MP-201, ATSP-7041 (S12H)] (Ac-LTF[R8]EYWQL[Cba][S5]HAA-NH2; staple 4-11) the EC50 [1, 5] was greater than 50 µM, the “LDH: Cytotoxicity assay % Effect” value (HCT116 cells; 0% FBS 4Hr) was 10.92% and the “LDH: Cytotoxicity assay % Effect” value (HCT116 cells; 0% FBS 16Hr) was 6.91%. It also gave an EPSA (physchem) of 218 A^2, a solubility kinetic [3, 6] of 5 µM (≈ 9.19 µg/mL) and a logD [4] of 2.64.
